Measured values taken from patent US20070136834A1, “Method and system for real-time analysis of biosensor data” (priority 2005, published 2007).

Test system: naturally-occurring algae
Assay: Variable chlorophyll fluorescence induction of naturally-occurring algae in Clinch River water, differential displacement (least-squares) analysis against control curve
Type: cell-based
Source text: Primary-source drinking water is monitored at regular intervals, for example every three to five minutes. • 2. Each (analog) chlorophyll fluorescence induction curve that is acquired for each interval is digitized and stored. The shape of each curve is a recording of the physiological status of the algae at that point in time. • 3. For each subsequent recording, such as three to five minutes later, the variable chlorophyll fluorescence induction curve at that time can be compared with the curve that was recorded three to five minutes earlier. • 4. By using a nonlinear least-squares fit of the current data with the previous curve, a quantitative assessment can be made that determines the degree of departure of the current curve as compared to its predecessor. • 5. Based on an algorithm, such as algorithms described herein, an objective real-time assessment of the degree of departure is obtained between the variable fluorescence curves and the correlation of that departure with the possible presence of toxins in the water.
Data analysis typically comprises three steps. […] Third, the set of numbers that comprises the transformation coefficient is analyzed for specific patterns analyzed by custom software to detect “fingerprints” for specific toxins such as chemical toxins. […]

With COP(=S)(OC)Oc1ccc([N+](=O)[O-])cc1 [methyl parathion] the “effect on shape of variable fluorescence induction curve” value was “change the shape of the variable fluorescence induction curve”.
